Reference: patent publication US20220193029A1, “BRYOSTATIN COMPOUNDS FOR ENHANCEMENT OF IMMUNOTHERAPY” (priority 2019, published 2022)

Experiments:
[1] = system: CD22 surface expression in NALM6 cells; assay: CD22 surface expression assay by flow cytometry; type: cell-based, human; conditions: Homo sapiens, NALM-6; At 1 nM, relative to DMSO control; NALM6 cells; read-out: Fold increase CD22 expression
Experimental: Cell cultures were maintained between 4×10^5 and 3×10^6 cells/mL according to vendor instructions.
Cell suspension from a confluent T75 flask (Fisher) was transferred to a 15 mL falcon tube and centrifuged at 1100 rpm for 7 minutes. […] Cells were counted using a Countess II Automated Cell Counter (Fisher). […] 199 μL of this stock was added to 24 wells (enough for triplicate measurements for 8 different experimental conditions) in a 96-well plate. […] 1 μL of DMSO or the appropriate stock solution of compound in DMSO was added to each well. Cells were incubated for 24 hours, at which point the cell suspensions were transferred to 1.5 mL Eppendorf tubes and diluted with 1.0 mL of PBS (Hyclone, without Ca^2+ or Mg^2+). Samples were centrifuged at 2000 rpm for 5 min at RT. […] Cells were sub-cultured between 2×10^5 and 3×10^6 cells/mL in 24-well plates for an additional 24 hrs-7 days, at which point CD22 surface expression was assayed by flow cytometry.
Cells from one well were counted using a Countess II Automated Cell Counter (Fisher). ˜200,000-300,000 cells from each well were added to 1.5 mL Eppendorf tubes containing PBS (final volume ˜1.2 mL). The cell suspensions were centrifuged at 1500 rpm for 7 minutes at 4° C. The supernatant was aspirated, and the cell pellet was resuspended in 99 μL of pre-chilled FACS buffer (0.5% w/v BSA in PBS). […] Samples were then diluted with an additional 1.0 mL of FACS buffer and centrifuged at 1500 rpm for 7 minutes at 4° C. […] Cells were stained with DAPI and CD22 surface expression was analyzed using the FACScan Analyzer at the Stanford Shared FACS Facility. Data analysis was performed using FlowJo and Microsoft Excel.

PKCδ-GFP fusion protein = assay: PKCδ-GFP translocation assay in living CHO-k1 cells (confocal microscopy); type: cell-based, Chinese hamster; conditions: for concentration* (minimum effective concentration required to induce translocation of PKC-GFP to the membrane) / % Translocation: CHO-k1 cells; for % Translocation: maximum translocation of PKCδ-GFP to the plasma membrane at the concentration printed in the same cell, SUW212: only brief translocation observed
Experimental: (§1) Because a prerequisite for PKC pathway involvement is binding to PKC, compounds were initially evaluated for PKC affinity in a cell-free competitive binding assay with tritiated phorbol dibutyrate ([^3H]-PDBu). Assays were performed with representative members of both the conventional (PKCα) and novel (PKCδ) PKC families. Subsequently, compounds were assayed for PKC activation in living cells using an isoform translocation assay.
Chinese hamster ovary factor K1 (CHO-k1, ATCC) cells were cultured in F-12 Kaighn's media (Hyclone, 10% fetal bovine serum, 1% penicillin/streptomycin added, referred to as F-12+/+ below) at 37° C. in an incubator (5% CO2). Cell cultures were maintained by splitting cells 1:3 when they reached ˜75-100% confluence (every 2-3 days) as follows:
1 mL of the cell suspension was then added to 9 mL of fresh F-12+/+ and the sample was sub-cultured until reaching confluence (˜2-3 days).
Cells were counted using a Countess II Automated Cell Counter (Fisher). The cell suspension was diluted to 240,000 cells/mL with fresh F-12+/+ and 2.5 mL of this diluted stock was added to one well in a 6-well plate. The cells were then cultured for 24 hours.
F-12+/+ was aspirated and cells were washed with F-12−/−. 2 mL of fresh F-12−/− was then added to each well, taking care not to disturb adherent cells. For each well of CHO-k1 cells, 12.5 μL Lipofectamine 2000 reagent (Invitrogen) was added to 250 μL Opti-MEM reduced serum media (Invitrogen) in a polypropylene tube and incubated for 20 minutes at RT. Meanwhile, for each well, 4 μg of PKCδ-GFP pDNA and 250 μL Opti-MEM reduced serum media was added to a separate polypropylene tube. 250 μL of the Lipofectamine 2000 suspension was added to the DNA suspension and the solution incubated for 30 minutes at RT. 500 μL of the Lipofectamine/DNA suspension was added to the respective wells of the 6-well plate. The cells were then incubated at 37° C. (5% CO2) for ˜24 hrs.
F-12+/+ was aspirated and cells were washed with F-12−/−. 2.4 mL of fresh F-12−/− was then added to each well, taking care not to disturb adherent cells. A 4 μg aliquot of PKCδ-GFP pDNA was added to PBS (pH 5.5, final volume 100 μL). 5.6 μL of DA 13:11 (2 mM stock in DMSO) was then added to the DNA solution, and the mixture was gently mixed (by flicking) for 20 seconds, at which point it was added directly to the respective wells of the 6-well plate. The cells were then incubated at 37° C. (5% C02) for ˜24 hrs.
After incubation, the media was aspirated and cells were washed with PBS (2.0 mL) and trypsinized (500 μL). The cell suspension was then diluted with 2.0 mL F-12+/+. 200 μL aliquots were added to 3 wells of a Lab-Tek II 4-well chambered coverglass slide (Fisher), producing 4 slides in total, each with three wells of cells. The cell suspension was directly diluted with 600 μL of additional F-12+/+. The resulting samples were incubated for ˜24 hrs. prior to imaging.
Fluorescent images were obtained using a Leica SP8 White Light Confocal microscope and the Leica AF software package. Prior to analysis, media was aspirated and 800 μL of PBS (Hyclone, without Ca^2+ or Mg^2+) supplemented with glucose (10 mM) was added to each well of the chambered coverglass slide. Bryostatin and bryostatin analogs were diluted to the appropriate concentration in 200 μL of 10 mM glucose in PBS. Cells were located for imaging and data was recorded for three wells in parallel, imaging at predetermined positions in each well using adaptive focus control. Cells were imaged at 30 second intervals following the addition of compound (set to t=0) for 20-40 minutes. Data were recorded at room temperature. Images were exported as .lif files and fluorescence intensity was analyzed using FIJI (NIH) software.

PKCδ = molecular target: T1, PKCδ (Homo sapiens, UniProt Q05655); assay: cell-free competitive PKC binding assay with [3H]-phorbol dibutyrate; conditions: competition with [3H]-PDBu, recombinant human PKC isoform
T1 construct: purchased Invitrogen
T1 sequence (Q05655 whole entry, canonical isoform): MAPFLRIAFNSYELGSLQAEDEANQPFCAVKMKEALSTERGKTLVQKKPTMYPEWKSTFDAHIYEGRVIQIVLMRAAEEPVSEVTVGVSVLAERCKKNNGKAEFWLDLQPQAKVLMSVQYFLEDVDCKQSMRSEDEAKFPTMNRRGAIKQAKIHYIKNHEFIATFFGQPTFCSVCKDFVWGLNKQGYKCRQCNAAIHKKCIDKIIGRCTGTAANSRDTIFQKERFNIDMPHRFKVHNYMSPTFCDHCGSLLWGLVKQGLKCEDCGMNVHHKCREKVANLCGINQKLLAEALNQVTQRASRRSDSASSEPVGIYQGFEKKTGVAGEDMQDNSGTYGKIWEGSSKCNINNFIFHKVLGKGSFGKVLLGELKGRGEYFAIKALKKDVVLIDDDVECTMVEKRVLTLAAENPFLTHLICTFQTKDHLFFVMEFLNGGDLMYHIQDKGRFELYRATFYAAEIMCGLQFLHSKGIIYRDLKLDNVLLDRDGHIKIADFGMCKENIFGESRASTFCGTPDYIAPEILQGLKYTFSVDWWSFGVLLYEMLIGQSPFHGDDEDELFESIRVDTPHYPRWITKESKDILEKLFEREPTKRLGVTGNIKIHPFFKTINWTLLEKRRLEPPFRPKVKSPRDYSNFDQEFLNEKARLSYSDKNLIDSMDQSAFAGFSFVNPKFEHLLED
Experimental: as §1
(§2) To a 50 mL polypropylene tube was added Tris-HCl (pH 7.4, 1 M, 1 mL), KCl (1 M, 2 mL), CaCl2) (0.1 M, 30 μL), and bovine serum albumin (BSA, 40 mg, Sigma-Aldrich). This mixture was diluted to 20 mL with deionized H2O and mixed gently. The buffer was stored on ice until use.
(§3) For every two assays, 3.5 mg phosphatidylserine (Avanti Polar Lipids, porcine, 25 mg/mL CHCl3 solution) was concentrated by removing chloroform under a stream of nitrogen followed by reduced pressure. The solid PS was suspended as vesicles in freshly prepared PKC binding assay buffer (3.5 mL) by sonicating six times for 30 sec, with a 30 sec rest between sonications (Branson Sonifier 250, power=2, 50% duty cycle). The resulting milky cloudy mixture (1 mg/mL) was stored on ice until use.
(§4) Assay PKC was prepared by dissolving a 4 μg aliquot of the indicated recombinant human PKC isoform (Invitrogen) into 11.6 mL of PKC binding assay buffer (this amount is sufficient for two assays). The diluted PKC was stored on ice for immediate use.
(§5) ^3H-PDBu (American Radiolabeled Chemicals, Inc.; 1 mCi/mL acetone solution; specific activity: 20 Ci/mmol) was diluted […] with DMSO. The resulting 500 nM stock solution was further diluted with DMSO to 30 nM.
(§6) Compound dilutions were prepared by serially diluting from a chosen “high” concentration by factors of 3 or 4.
(§7) To a polypropylene tube was added 3.3 mL of 1 mg/mL PS vesicles solution, 11 mL of PKC isoform solution, and 1.1 mL of 30 nM ^3H-PDBu solution were added. The resulting solution was vortexed to mix and stored on ice.
(§8) Materials: • Glass-fiber filters (Whatman GF/B) were prepared by soaking them in a solution of aqueous polyethyleneimine (10% by vol, 18 mL) in deionized water (600 mL) for ≥1 h. • 500 mL “rinsing buffer” of 20 mM Tris, pH 7.4 was cooled on ice for the duration of the incubation period and for the remainder of the assay.
Triplicate data points were obtained for each analog concentration. For each data point, 280 μL of “Master Mix” Solution and 20 μL of analog compound at a specified concentration were added to a polypropylene tube. […] Maximal ^3H-PDBu binding was assessed in triplicate by substitution of the analog compound with 20 μL DMSO. The solutions were vortexed to mix, incubated at 37° C. for 10 min, and incubated on ice for at least 30 min prior to filtration. Using a Brandel Harvester, the assay contents from each polypropylene tube were vacuum-filtered through polyethylenimine-soaked filters, washing with rinsing buffer (3×) and drying first under vacuum for 5 min and then under ambient conditions for ≥2 h. The resulting filters had circular perforations for each data point, which were removed with forceps and placed in a scintillation vial. Scintillation vials were filled with Bio-Safe II scintillation fluid (5 mL) and measured for radioactivity using a Beckman LS 6000SC scintillation counter. Counts per minute (cpm) were averaged for each triplicate dilution. The data were plotted—cpm vs. log(concentration)—using Prism® by GraphPad Software and an IC50 was determined using that program's built-in one-site competition least squares regression function. […] The Kd of ^3H-PDBu for PKC isoforms was measured separately via saturation binding experiments under identical conditions.

PKC = assay: cell-free PKC binding assay, isoform not given; set-up: species or system human
Experimental: as §1, §4
(§9) Triplicate data points were obtained for each analog concentration. For each data point, 280 μL of “Master Mix” Solution and 20 μL of analog compound at a specified concentration were added to a polypropylene tube. […] Maximal ^3H-PDBu binding was assessed in triplicate by substitution of the analog compound with 20 μL DMSO. The solutions were vortexed to mix, incubated at 37° C. for 10 min, and incubated on ice for at least 30 min prior to filtration. Using a Brandel Harvester, the assay contents from each polypropylene tube were vacuum-filtered through polyethylenimine-soaked filters, washing with rinsing buffer (3×) and drying first under vacuum for 5 min and then under ambient conditions for ≥2 h. The resulting filters had circular perforations for each data point, which were removed with forceps and placed in a scintillation vial. Scintillation vials were filled with Bio-Safe II scintillation fluid (5 mL) and measured for radioactivity using a Beckman LS 6000SC scintillation counter. Counts per minute (cpm) were averaged for each triplicate dilution. The data were plotted—cpm vs. log(concentration)—using Prism® by GraphPad Software and an IC50 was determined using that program's built-in one-site competition least squares regression function. Ki values were calculated using the equation: Ki=IC50/(1+([3H−PDBu]/Kd)). The Kd of ^3H-PDBu for PKC isoforms was measured separately via saturation binding experiments under identical conditions.

PKCα = molecular target: T2, PKCα (Homo sapiens, UniProt P17252); assay: cell-free competitive PKC binding assay with [3H]-phorbol dibutyrate; conditions: competition with [3H]-PDBu, recombinant human PKC isoform
T2 construct: purchased Invitrogen
Experimental: as §1, §2, §3, §4, §5, §6, §7, §8, §9

## C=C1CC2C=CC(C)(C)C3(O)OC(CC(=CC(=O)OC)C3OC(=O)C#CCCCCC)CC(C(C)O)OC(=O)CC(O)CC3CC(OC(C)=O)C(C)(C)C(O)(CC(C1)O2)O3 (centres unmarked) [SUW200]
[1]
  fold induction at 0.001 µM: 1.73
PKCδ-GFP fusion protein
  concentration* (minimum effective concentration required to induce translocation of PKC-GFP to the membrane): 200 nM
  % Translocation: 70%

## CCCCCC#CC(=O)O[C@H]1/C(=C/C(=O)OC)C[C@H]2C[C@H]([C@@H](C)O)OC(=O)C[C@H](O)C[C@@H]3C[C@H](OC(C)=O)C(C)(C)[C@](O)(C[C@@H]4C[C@H](O)C[C@H](/C=C/C(C)(C)[C@]1(O)O2)O4)O3 [SUW204]
PKCδ-GFP fusion protein; 200 nM, at 20 minutes
  cytosolic PKC translocated to the plasma membrane: ~25%
PKCδ-GFP fusion protein
  concentration* (minimum effective concentration required to induce translocation of PKC-GFP to the membrane): 200 nM
  % Translocation: 25%

## CCCC=CC=CC(=O)OC1C(=CC(=O)OC)CC2CC(C(C)O)OC(=O)CC(O)CC3CC(OC(C)=O)C(C)(C)C(O)(CC4CC(OC(=O)CC56CC7CC(CC(C7)C5)C6)CC(C=CC(C)(C)C1(O)O2)O4)O3 (centres unmarked) [SUW209]
PKCδ
  Ki: 3.5 nM
PKC
  binding affinity to PKC, in words: high affinity PKC binders
PKCδ-GFP fusion protein; 200 nM
  activity in the PKC translocation assay at 200 nM: inactive
PKCδ-GFP fusion protein; 1000 nM, at about 5 minutes
  cytosolic PKC translocated to the plasma membrane: ~70%
PKCδ-GFP fusion protein
  concentration* (minimum effective concentration required to induce translocation of PKC-GFP to the membrane): 1000 nM
  % Translocation: 60%
PKCα
  Ki: 1.6 nM

## CCC/C=C/C=C/C(=O)O[C@H]1/C(=C/C(=O)OC)C[C@H]2C[C@H]([C@@H](C)O)OC(=O)C[C@H](O)C[C@@H]3C[C@H](OC(C)=O)C(C)(C)[C@](O)(C[C@@H]4C[C@H](OC(=O)CN(C)C)C[C@H](/C=C/C(C)(C)[C@]1(O)O2)O4)O3 [SUW211]
PKCδ
  Ki: 27 nM
PKCδ-GFP fusion protein
  concentration* (minimum effective concentration required to induce translocation of PKC-GFP to the membrane): 1000 nM
  % Translocation: 20%
PKCδ-GFP fusion protein; at up to 1000 nM
  sustained translocation of PKC: did not achieve sustained translocation
PKCα
  Ki: 98 nM

## CCC/C=C/C=C/C(=O)O[C@H]1/C(=C/C(=O)OC)C[C@H]2C[C@H]([C@@H](C)O)OC(=O)C[C@H](O)C[C@@H]3C[C@H](OC(C)=O)C(C)(C)[C@](O)(C[C@@H]4C/C(=C\C(=O)OCc5ccccc5)C[C@H](/C=C/C(C)(C)[C@]1(O)O2)O4)O3 [SUW220]
PKCδ
  Ki: 15 nM
PKCδ-GFP fusion protein
  concentration* (minimum effective concentration required to induce translocation of PKC-GFP to the membrane): 1000 nM
  % Translocation: 50%
PKCα
  Ki: 16 nM

## C=CCOC(=O)/C=C1\C[C@H]2C[C@]3(O)O[C@H](C[C@@H](O)CC(=O)O[C@@H]([C@@H](C)O)C[C@@H]4C/C(=C\C(=O)OC)[C@H](OC(=O)/C=C/C=C/CCC)[C@@](O)(O4)C(C)(C)/C=C/[C@@H](C1)O2)C[C@H](OC(C)=O)C3(C)C [SUW230]
PKCδ
  Ki: 9.4 nM
PKCδ-GFP fusion protein
  concentration* (minimum effective concentration required to induce translocation of PKC-GFP to the membrane): 200 nM
  % Translocation: 65%
PKCα
  Ki: 4.2 nM
